Columns and labels:
[1] = tested on: MCF-7 human breast adenocarcinoma cells; test: Cytotoxicity, SRB binding assay; assay type: cell-based; details: MCF7, inhibition of cell proliferation, 48 h, read-out: MCF-7 IC50
Protocol: To further assess the biological efficacies of the Compounds in intact cells, each Compound was evaluated for cytotoxicity using human cancer cell lines. These experiments followed methods that have been extensively used. Cell lines tested included MCF-7 human breast adenocarcinoma cells and MCF-10A non-transformed human breast epithelial cells. The indicated cell lines were treated with varying doses of the test Compound for 48 h. Cell survival was then determined using the SRB binding assay (Skehan et al., 1990, J Natl Cancer Inst 82: 1107), and the concentration of compound that inhibited proliferation by 50% (the IC50) was calculated. Values (in μM) represent the mean±sd for replicate trials.

[2] = tested on: recombinant human SK; test: Inhibition of recombinant human SK, LC/MS/MS assay; assay type: biochemical; details: 6 μg/ml compound
Protocol: SK activity is measured by incubation of the recombinant SK with [^3H]sphingosine and 1 mM ATP under defined conditions, followed by extraction of the assay mixture with chloroform:methanol under basic conditions. […] Radioactivity in aliquots of the aqueous phase is then quantified as a measure of [^3H]S1P formation.
In an alternate assay procedure, the recombinant human SK was incubated with unlabeled sphingosine and ATP as described above. After 30 minutes, the reactions were terminated by the addition of acetonitrile to directly extract the newly synthesized S1P. The amount of S1P in the samples is then quantified as follows. C17 base D-erythro-sphingosine and C17 SIP are used as internal standards for sphingosine and S1P, respectively. […] The lipids are then fractionation by High-Performance Liquid Chromatography using a C8-reverse phase column eluted with 1 mM methanolic ammonium formate/2 mM aqueous ammonium formate. […] Calibration curves are generated by plotting the peak area ratios of the synthetic standards for each sphingolipid, and used to determine the normalized amounts of sphingosine and S1P in the samples.
Each Compound of this invention was tested for its ability to inhibit recombinant SK using the LC/MS/MS assay described above.

SMILES | IC50 [1] [µM] | Recombinant SK (% inhibition) [2] [%]
CN1CCCC1CCNCC12CC3CC(C1)CC(c1ccc(Cl)cc1)(C3)C2 (stereo not shown) [Compound 86, [3-(4-Chloro-phenyl)-adamantan-1-ylmethyl]-[2-(1-methyl-pyrrolidin-2-yl)-ethyl]-amine] | 5 | 6
O=C(NCc1cc(F)cc(F)c1)C12CC3CC(C1)CC(c1ccc(Cl)cc1)(C3)C2 [Compound 20, 3-(4-Chloro-phenyl)-adamantane-1-carboxylic acid 3,5-difluoro-benzylamide] | 33 | 0
O=C(NCc1cc(F)c(F)c(F)c1)C12CC3CC(C1)CC(c1ccc(Cl)cc1)(C3)C2 [Compound 22, 3-(4-Chloro-phenyl)-adamantane-1-carboxylic acid 3,4,5-trifluoro-benzylamide] | 18 | 56
O=C(NCc1ccc(-c2ccccc2)cc1)C12CC3CC(C1)CC(c1ccc(Cl)cc1)(C3)C2 [Compound 49, 3-(4-Chloro-phenyl)-adamantane-1-carboxylic acid (biphenyl-4-ylmethyl)-amide] | 68 | 33
O=C(NC1CC1)C12CC3CC(C1)CC(c1ccc(Cl)cc1)(C3)C2 [Compound 2, 3-(4-Chloro-phenyl)-adamantane-1-carboxylic acid cyclopropylamide] | 20 | 0
CS(=O)(=O)c1ccc(CNC(=O)C23CC4CC(C2)CC(c2ccc(Cl)cc2)(C4)C3)cc1 [Compound 30, 3-(4-Chloro-phenyl)-adamantane-1-carboxylic acid 4-methanesulfonyl-benzylamide] | 14 | 1
CC(NC1CCN(C)CC1)C12CC3CC(CC(C3)C1)C2 (stereo not shown) [Compound 104, (1-Adamantan-1-yl-ethyl)-(1-methyl-piperidin-4-yl)-amine] | 34 | 0
CC(Nc1ccccc1)C12CC3CC(CC(c4ccccc4)(C3)C1)C2 (stereo not shown) [Compound 93, Phenyl-[1-(3-phenyl-adamantan-1-yl)-ethyl]-amine] | 15 | 70
O=C(NCCCN1CCCC1)C12CC3CC(C1)CC(c1ccc(Cl)cc1)(C3)C2 [Compound 54, 3-(4-Chloro-phenyl)-adamantane-1-carboxylic acid (3-pyrrolidin-1-yl-propyl)-amide] | 11 | 95
CN1CCC(NC(=O)C23CC4CC(CC(C4)C2)C3)CC1 [Compound 50, Adamantane-1-carboxylic acid (1-methyl-piperidin-4-yl)-amide] | 181 | 0
O=C(NCCc1ccc(O)c(O)c1)C12CC3CC(CC(C3)C1)C2 [Compound 43, Adamantane-1-carboxylic acid [2-(3,4-dihydroxy-phenyl)-ethyl]-amide] | 27 | 0
O=C(/C=C/c1ccc(Cl)cc1)C12CC3CC(C1)CC(c1ccc(Cl)cc1)(C3)C2 [Compound 130, 3-(4-Chloro-phenyl)-1-[3-(4-chloro-phenyl)-adamantan-1-yl]-propenone] | 7 | 38
O=C(NCc1ccc(F)c(F)c1)C12CC3CC(C1)CC(c1ccc(Cl)cc1)(C3)C2 [Compound 21, 3-(4-Chloro-phenyl)-adamantane-1-carboxylic acid 3,4-difluoro-benzylamide] | 27 | 65
CN(C)c1ccc(CNC(=O)C23CC4CC(C2)CC(c2ccc(Cl)cc2)(C4)C3)cc1 [Compound 31, 3-(4-Chloro-phenyl)-adamantane-1-carboxylic acid 4-dimethylamino-benzylamide] | 74 | 74
CSc1ccc(CNC(=O)C23CC4CC(C2)CC(c2ccc(Cl)cc2)(C4)C3)cc1 [Compound 14, 3-(4-Chloro-phenyl)-adamantane-1-carboxylic acid 4-methylsulfanyl-benzylamide] | 36 | 19
O=C(NCc1ccc(Oc2ccccc2)cc1)C12CC3CC(C1)CC(c1ccc(Cl)cc1)(C3)C2 [Compound 34, 3-(4-Chloro-phenyl)-adamantane-1-carboxylic acid 4-phenoxy-benzylamide] | > 106 | 0
O=C(NCCc1ccc(Oc2ccccc2)cc1)C12CC3CC(C1)CC(c1ccc(Cl)cc1)(C3)C2 [Compound 47, 3-(4-Chloro-phenyl)-adamantane-1-carboxylic acid [2-(4-phenoxy-phenyl)-ethyl]-amide] | 16 | 26
O=C(NCCc1ccc2c(c1)OCO2)C12CC3CC(C1)CC(c1ccc(Cl)cc1)(C3)C2 [Compound 45, 3-(4-Chloro-phenyl)-adamantane-1-carboxylic acid (2-benzo[1,3]dioxol-5-yl-ethyl)-amide] | 17 | 64
O=C(/C=C/c1ccc(Cl)nc1)C12CC3CC(C1)CC(c1ccc(Cl)cc1)(C3)C2 [Compound 134, 1-[3-(4-Chloro-phenyl)-adamantan-1-yl]-3-(6-chloro-pyridin-3-yl)-propenone] | 16 | 52
O=C(NCc1ccc(Cl)c(C(F)(F)F)c1)C12CC3CC(C1)CC(c1ccc(Cl)cc1)(C3)C2 [Compound 26, 3-(4-Chloro-phenyl)-adamantane-1-carboxylic acid 4-chloro-3-trifluoromethyl-benzylamide] | 19 | 36
CN1CCCC1CCNC(=O)C12CC3CC(CC(C3)C1)C2 (stereo not shown) [Compound 56, Adamantane-1-carboxylic acid [2-(1-methyl-pyrrolidin-2-yl)-ethyl]-amide] | 10 | 33
O=C(/C=C/c1cnc[nH]1)C12CC3CC(C1)CC(c1ccc(Cl)cc1)(C3)C2 [Compound 135, 1-[3-(4-Chloro-phenyl)-adamantan-1-yl]-3-(1H-imidazol-4-yl)-propenone] | 3 | 64
FC(F)(F)Oc1ccc(CNCC23CC4CC(C2)CC(c2ccc(Cl)cc2)(C4)C3)cc1 [Compound 80, [3-(4-Chloro-phenyl)-adamantan-1-ylmethyl]-(4-trifluoromethoxy-benzyl)-amine] | – | 5
Fc1ccc(CNCC23CC4CC(C2)CC(c2ccc(Cl)cc2)(C4)C3)cc1C(F)(F)F [Compound 79, [3-(4-Chloro-phenyl)-adamantan-1-ylmethyl]-(4-fluoro-3-trifluoromethyl-benzyl)-amine] | – | 19
Clc1ccc(C23CC4CC(CC(CNCCCN5CCCC5)(C4)C2)C3)cc1 [Compound 85, [3-(4-Chloro-phenyl)-adamantan-1-ylmethyl]-(3-pyrrolidin-1-yl-propyl)-amine] | – | 0
FC(F)(F)c1ccc(CNCC23CC4CC(C2)CC(c2ccc(Cl)cc2)(C4)C3)cc1 [Compound 77, [3-(4-Chloro-phenyl)-adamantan-1-ylmethyl]-(4-trifluoromethyl-benzyl)-amine] | – | 27
CC(C)(C)NCCCNCC12CC3CC(C1)CC(c1ccc(Cl)cc1)(C3)C2 [Compound 84, N-tert-Butyl-N′-[3-(4-chloro-phenyl)-adamantan-1-ylmethyl]-propane-1,3-diamine] | – | 84
O=C(Nc1nnn[nH]1)C12CC3CC(C1)CC(c1ccc(Cl)cc1)(C3)C2 [Compound 67, 3-(4-Chloro-phenyl)-adamantane-1-carboxylic acid (1H-tetrazol-5-yl)-amide] | – | 10
CC(NC(=O)Nc1ccc(Cl)c(C(F)(F)F)c1)C12CC3CC(CC(c4ccc(Cl)cc4)(C3)C1)C2 (stereo not shown) [Compound 118, 1-{1-[3-(4-Chloro-phenyl)-adamantan-1-yl]-ethyl}-3-(4-chloro-3-trifluoromethyl-phenyl)-urea] | – | 77
O=C(NCCCn1ccnc1)C12CC3CC(C1)CC(c1ccc(Cl)cc1)(C3)C2 [Compound 65, 3-(4-Chloro-phenyl)-adamantane-1-carboxylic acid (3-imidazol-1-yl-propyl)-amide] | – | 3
